Test results reported in article PMC6823370, “A novel nucleoside rescue metabolic pathway may be responsible for therapeutic effect of orally administered cordycepin” (Scientific Reports, 2019).
Like-named read-outs stand apart in the source and are kept apart here.

How the values were obtained:
[1] = In vivo pharmacokinetics in rats after intravenous or oral cordycepin; parameters: species or system Sprague Dawley rats; conditions: for AUC(0-t) / C0 / clearance: in vivo; for AUC(0-t) / C0 / AUC0→t/Dose of cordycepin: rat plasma; for AUC(0-t): read-out: AUC0→t of cordycepin; for C0: read-out: C0 of cordycepin; for clearance: read-out: CL of cordycepin (converted)
Experimental: Protocols for the animal experiments in this study were reviewed and approved by the University of Nottingham Ethical Review Committee in accordance with the Animals [Scientific Procedures] Act 1986. Four male Sprague Dawley rats (Charles River Laboratories, UK) of 300–350 g body weight were used. The animals were housed in the Bio Support Unit, University of Nottingham at controlled temperature, 12 h light/dark cycle and free access to food and water. The animals were allowed to acclimatise for at least six days prior to any procedures.
Prior to pharmacokinetic studies, jugular vein cannulation surgery was performed under general anaesthesia (<3% isoflurane inhalation) for blood sampling or intravenous drug administration. Following two nights of recovery from surgery, the animals were intravenously or orally administered with the PBS-based formulation (5.5 mg/mL cordycepin) developed in a previously reported study. The dose was 8 or 20 mg/kg for intravenous administration and 8 or 80 mg/kg for oral administration. […] When whole blood was analysed, an aliquot was withdrawn immediately after mixing with the pretreated pentostatin. Otherwise, the mixture was centrifuged (3000 g, 10 min) to obtain plasma and samples were stored within the storage conditions tested prior to analysis.
Samples from Caco-2 permeability, in vitro determination of CordyTP formation and in vivo experiments were subjected to protein precipitation followed by LC-MS/MS analysis. To 50 µL of rat plasma sample, 150 µL of internal standard solution (1.67 µg/mL 2-chloroadenosine in methanol) was added. The samples were then vortex-mixed for 10 s and were centrifuged for 3 min at 17949 g. Supernatant (20 µL) was collected and diluted 10-fold with DDW before injection into the LC-MS/MS for analysis of cordycepin and 3′-deoxyinosine. For analysis of CordyTP, the supernatant was filtered using filter tubes mentioned above and injected without dilution. Tissue samples were homogenised using Bullet Blender Gold (Next Advance, Inc., Troy, NY) in methanol (1:3 w/v) and centrifuged for 3 min at 17949 g. The supernatant was filtered and injected for analysis of CordyTP or diluted 10-fold with DDW for analysis of cordycepin and 3′-deoxyinosine. The LC-MS/MS system was a API4000 QTrap (AB Sciex, Warrington, UK) equipped with HPLC setup of SCL10Avp controller, LC10ADvp pump and SILHTC autosampler (Shimadzu, Milton Keynes, UK). Three different methods were utilised for each compound and multiple reaction monitoring parameters of the MS/MS conditions are shown in Table 1. The HPLC conditions including stationary phases and specific mass spectrometry parameters are shown in Supplementary Information 2. The LC-MS/MS method for cordycepin was fully validated in terms of accuracy, precision, sensitivity, selectivity, linearity and sample storage stability in accordance with the Guidance for Industry, Bioanalytical Method Validation, (2018) published by the US FDA (refer to Supplementary Information 3 for validation procedures and results)[53].
Data are presented as mean ± standard deviation (SD). A two-tailed unpaired t-test was applied for assessment of statistical significance of differences between two groups. For three or more groups, the statistical significance was assessed by application of a one-way ANOVA followed by Tukey’s multiple comparisons test. A p-value lower than 0.05 was deemed statistically significant. Statistical analyses were conducted using GraphPad Prism version 7.01 (GraphPad Software, Inc., La Jolla, CA, USA). Pharmacokinetic parameters were obtained by non-compartmental analysis using Phoenix WinNonlin 6.3 software (Pharsight, Mountain View, CA, USA).
For calculation of pharmacokinetic parameters, the plasma concentration-time curve was plotted in a semi-log scale. From the plot, the elimination rate constant (ke) was calculated. Elimination half-life (t1/2) wasthen calculated using the following equation: […]

RAW264.7 cells = experiment: Repression of inflammatory gene expression in LPS-stimulated RAW264.7 cells (qPCR); assay type: cell-based, mouse; conditions: 20 µM, 1 h prior to LPS stimulation
Experimental: RAW 264.7 mouse macrophage cells were cultured in DMEM supplemented with 10% FBS. Prior to experiments, cells were washed with PBS and cells were maintained in DMEM with 0.5% FBS or 10% FBS for 24 h. LPS was added at 1 µg/mL, 1 h before compound treatment, when needed. When the cells were analysed for concentration levels of cordycepin, 3′-deoxyinosine and CordyTP, the cells were washed twice with PBS. The cells were then treated with methanol and mixed vigorously before the mixture was harvested. The mixture was filtered using filter tubes mentioned above and the filtrate was analysed by liquid chromatography coupled with tandem mass spectrometry (LC-MS/MS). For determination of relative mRNA levels, RNA was isolated from the lysates using an RNA isolation kit, following manufacturer’s protocol (Promega, Madison, WI, cat no. Z6012). RNA was reverse transcribed to cDNA using SuperScript™ III reverse transcriptase (Invitrogen, Carlsbad, CA). Quantitative polymerase chain reaction (qPCR), was performed with Qiagen Rotor-Gene Q qPCR machine (Qiagen, Hilden, Germany) using Promega SYBR Green GoTaq® qPCR master mix (Promega).
Figure 3 Repression effect on inflammatory gene expression. (a) NBTI or ITu treatment prior to cordycepin treatment suppresses effect of cordycepin. RAW264.7 cells were treated with 10 µM NBTI, 100 nM ITu or DMSO (Ctrl, control) 15 min prior to cordycepin treatment. The cells were stimulated with LPS 1 h after cordycepin treatment (mean ± SD, n = 3). **p < 0.01; ***p < 0.001 compared to DMSO treatment (labelled as Ctrl). (b) 3′-deoxyinosine exerts same repression effect as cordycepin, although to a lesser degree. RAW264.7 cells were treated with 20 µM cordycepin, 20 µM 3′-deoxyinosine (3DI) or DMSO (Ctrl, control) for 1 h prior to LPS stimulation (mean ± SD, n = 3). **p < 0.01; ***p < 0.001 compared to without compound treatment (labelled as LPS).

[2] = male, Sprague Dawley, intravenous cordycepin 8 mg/kg
[3] = male, Sprague Dawley, intravenous cordycepin 20 mg/kg

Work on `Nc1ncnc2c1ncn2[C@@H]1O[C@H](CO)C[C@H]1O` [cordycepin, 3′-deoxyadenosine] yielded an AUC(0-t) [1, 2] of 196 ± 94 ng·h/mL, a C0 [1, 2] of 890 ± 576 ng/mL and an AUC(0-t) [1, 3] of 232 ± 106 ng·h/mL. For the same molecule, the C0 [1, 3] was 12300 ± 8840 ng/mL, the clearance ([1]; male, Sprague Dawley, rat, intravenous cordycepin 8 mg/kg) was 1720 mL/min/kg and the clearance ([1]; male, Sprague Dawley, rat, intravenous cordycepin 20 mg/kg) was 1520 mL/min/kg. It also gave a blood plasma ratio ([1]; male, Sprague Dawley, rat, whole blood and plasma, intravenous, 20 mg/kg, intravenous cordycepin 20 mg/kg) of 0.68 ± 0.27, an AUC0→t/Dose of cordycepin ([1]; intravenous cordycepin 8 mg/kg) of 25 ± 12 ng·kg·h/mL/mg and an AUC0→t/Dose of cordycepin ([1]; intravenous cordycepin 20 mg/kg) of 12 ± 5 ng·kg·h/mL/mg. For the same molecule, the “increase of AUC when dose increased from 8 to 20 mg/kg” value ([1]; rat, intravenous cordycepin) was 1.18 fold, the “increase of C0 when dose increased from 8 to 20 mg/kg” value ([1]; rat, intravenous cordycepin) was 13.8 fold and the blood/plasma ratio ([1]; rat, intravenous cordycepin 20 mg/kg) was < 1. For the same molecule, the “cordycepin in plasma after oral administration” value ([1]; rat, oral cordycepin 8 or 80 mg/kg, any time point, limit of quantification 2 ng/mL) was “not detected in plasma at all” and the “effect on expression of inflammatory genes” value (RAW264.7 cells) was “inhibitory effect”.
